Data taken from patent US10072011B2, “Substituted bridged urea analogs as sirtuin modulators” (GlaxoSmithKline Intellectual Property (No.2) Limited, priority 2014, dated 2018).
Like-named read-outs stand apart in the source and are kept apart here.

Target: T1, SIRT1 (Homo sapiens, UniProt Q96EB6)
T1 sequence (Q96EB6 1-747): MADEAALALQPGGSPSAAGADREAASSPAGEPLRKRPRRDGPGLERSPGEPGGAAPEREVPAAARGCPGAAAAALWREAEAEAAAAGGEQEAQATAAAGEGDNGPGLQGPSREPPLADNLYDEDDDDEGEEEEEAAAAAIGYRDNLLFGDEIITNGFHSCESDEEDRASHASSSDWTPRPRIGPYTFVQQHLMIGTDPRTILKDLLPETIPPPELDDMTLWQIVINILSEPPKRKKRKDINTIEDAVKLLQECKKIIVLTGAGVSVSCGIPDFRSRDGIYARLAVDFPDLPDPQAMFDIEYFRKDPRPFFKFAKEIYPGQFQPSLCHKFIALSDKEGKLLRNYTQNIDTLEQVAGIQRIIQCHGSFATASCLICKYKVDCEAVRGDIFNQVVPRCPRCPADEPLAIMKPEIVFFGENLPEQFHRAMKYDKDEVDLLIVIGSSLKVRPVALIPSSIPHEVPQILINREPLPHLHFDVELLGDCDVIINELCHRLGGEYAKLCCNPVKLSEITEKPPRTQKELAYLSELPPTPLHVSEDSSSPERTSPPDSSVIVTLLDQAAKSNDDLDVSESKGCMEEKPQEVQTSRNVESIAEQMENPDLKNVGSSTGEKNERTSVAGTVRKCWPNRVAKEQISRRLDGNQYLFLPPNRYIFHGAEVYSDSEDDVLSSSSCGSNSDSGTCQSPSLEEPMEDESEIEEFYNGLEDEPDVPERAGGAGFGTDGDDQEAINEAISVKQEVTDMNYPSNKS
Experiment: Trp mass spectrometry assay of SIRT1 activation (Ac-R-H-K-K(Ac)-W-NH2 peptide)
Assay type: biochemical
Conditions: for Emax: 25 min, read-out: TRP MAX RESP (percent maximum fold activation)
Summary of the method: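 N-terminal His-tagged human SIRT1, expressed in BL21(DE3) and purified, was incubated 25 min with an acetylated Trp peptide and NAD plus test compound at varying concentrations, then quenched with formic acid. OAADPR or deacetylated peptide was quantified by mass spectrometry versus compound-free control; EC1.5 is the concentration giving 50% activity increase, with percent maximum activation.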

[1] = Trp peptide 0.5 μM, 120 μM βNAD+, 10 nM SIRT1, 25 min at 25° C., relative to control (100%)
[2] = Trp peptide 0.5 μM, 120 μM βNAD+, 10 nM SIRT1, 25 min at 25° C.

SMILES | Emax [1] | TRP Activity (EC1.5, concentration of test compound that results in 150% activation of SIRT1) [2] | Emax
C[C@@H](NC(=O)c1ccc2c(n1)N(C(=O)Nc1ncc(F)cc1F)[C@H]1CCN2C1)C(F)(F)F [Example 239, (4S)—N5-(3,5-difluoropyridin-2-yl)-N7-((R)-1,1,1-trifluoropropan-2-yl)-3,4-dihydro-1,4-methanopyrido[2,3-b][1,4]diazepine-5,7(2H)-dicarboxamide] | > 150% | B (EC1.5 1-25 μM) | –
O=C(NCc1ccc(F)cc1)c1ccc2c(n1)N(C(=O)Nc1cc(OC[C@H](O)CO)ccn1)[C@H]1CCN2C1 [Example 240, (4S)—N5-(4-((R)-2,3-dihydroxypropoxy)pyridin-2-yl)-N7-(4-fluorobenzyl)-3,4-dihydro-1,4-methanopyrido[2,3-b][1,4]diazepine-5,7(2H)-dicarboxamide] | > 150% | A (EC1.5<1 μM) | –
O=C(NC1(C(F)(F)F)CC1)c1ccc2c(n1)N(C(=O)Nc1ccccn1)[C@H]1CCN2C1 [Example 241, (4S)—N5-(pyridin-2-yl)-N7-(1-(trifluoromethyl)cyclopropyl)-3,4-dihydro-1,4-methanopyrido[2,3-b][1,4]diazepine-5,7(2H)-dicarboxamide] | > 150% | A (EC1.5<1 μM) | –
C[C@@H](NC(=O)c1ccc2c(n1)N(C(=O)Nc1nccc(OC[C@H](O)CO)n1)[C@H]1CCN2C1)C(F)(F)F [Example 244, (4S)—N5-(4-((R)-2,3-dihydroxypropoxy)pyrimidin-2-yl)-N7-((R)-1,1,1-trifluoropropan-2-yl)-3,4-dihydro-1,4-methanopyrido[2,3-b][1,4]diazepine-5,7(2H)-dicarboxamide] | > 150% | A (EC1.5<1 μM) | –
O=C(NC1CC(F)(F)C1)c1ccc2c(n1)N(C(=O)Nc1ccccn1)[C@H]1CCN2C1 [Example 246, (4S)—N7-(3,3-difluorocyclobutyl)-N5-(pyridin-2-yl)-3,4-dihydro-1,4-methanopyrido[2,3-b][1,4]diazepine-5,7(2H)-dicarboxamide] | > 150% | A (EC1.5<1 μM) | –
Cc1cccnc1NC(=O)N1c2nc(C(=O)N[C@H](C)C(F)(F)F)ccc2N2CC[C@H]1C2 [Example 247, (4S)—N5-(3-methylpyridin-2-yl)-N7-((R)-1,1,1-trifluoropropan-2-yl)-3,4-dihydro-1,4-methanopyrido[2,3-b][1,4]diazepine-5,7(2H)-dicarboxamide] | > 150% | B (EC1.5 1-25 μM) | –
O=C(NC1CC1)c1ccc2c(n1)N(C(=O)Nc1cc(OC[C@@H](O)CO)ccn1)[C@H]1CCN2C1 [Example 250, (4S)—N7-cyclopropyl-N5-(4-((S)-2,3-dihydroxypropoxy)pyridin-2-yl)-3,4-dihydro-1,4-methanopyrido[2,3-b][1,4]diazepine-5,7(2H)-dicarboxamide] | > 150% | A (EC1.5<1 μM) | –
C[C@@H](NC(=O)c1ccc2c(n1)N(C(=O)Nc1ccon1)[C@H]1CCN2C1)C(F)(F)F [Example 251, (4S)—N5-(isoxazol-3-yl)-N7-((R)-1,1,1-trifluoropropan-2-yl)-3,4-dihydro-1,4-methanopyrido[2,3-b][1,4]diazepine-5,7(2H)-dicarboxamide] | > 150% | B (EC1.5 1-25 μM) | –
Cc1ncc(-c2ccnc(NC(=O)N3c4nc(C(=O)N[C@H](C)C(F)(F)F)cc(C)c4N4CC[C@H]3C4)c2)o1 [Example 252, (4S)-9-methyl-N5-(4-(2-methyloxazol-5-yl)pyridin-2-yl)-N7-((R)-1,1,1-trifluoropropan-2-yl)-3,4-dihydro-1,4-methanopyrido[2,3-b][1,4]diazepine-5,7(2H)-dicarboxamide] | < 150% | A (EC1.5<1 μM) | –
C#CC(C)(C)NC(=O)c1ccc2c(n1)N(C(=O)Nc1ccccn1)[C@H]1CCN2C1 [Example 253, (4S)—N7-(2-methylbut-3-yn-2-yl)-N5-(pyridin-2-yl)-3,4-dihydro-1,4-methanopyrido[2,3-b][1,4]diazepine-5,7(2H)-dicarboxamide] | > 150% | B (EC1.5 1-25 μM) | –
CN(CC(F)(F)F)C(=O)c1ccc2c(n1)N(C(=O)Nc1ccccn1)[C@H]1CCN2C1 [Example 254, (4S)—N7-methyl-N5-(pyridin-2-yl)-N7-(2,2,2-trifluoroethyl)-3,4-dihydro-1,4-methanopyrido[2,3-b][1,4]diazepine-5,7(2H)-dicarboxamide] | > 150% | B (EC1.5 1-25 μM) | –
Cc1nc(NC(=O)N2c3nc(C(=O)NC4CC4)ccc3N3CC[C@H]2C3)co1 [Example 255, (4S)—N7-cyclopropyl-N5-(2-methyloxazol-4-yl)-3,4-dihydro-1,4-methanopyrido[2,3-b][1,4]diazepine-5,7(2H)-dicarboxamide] | > 150% | B (EC1.5 1-25 μM) | –
O=C(NCc1nnn[nH]1)c1ccc2c(n1)N(C(=O)Nc1cc(OC[C@H](O)CO)ccn1)[C@H]1CCN2C1 [Example 256, (4S)—N7-((1H-tetrazol-5-yl)methyl)-N5-(4-((R)-2,3-dihydroxypropoxy)pyridin-2-yl)-3,4-dihydro-1,4-methanopyrido[2,3-b][1,4]diazepine-5,7(2H)-dicarboxamide] | > 150% | B (EC1.5 1-25 μM) | –
NC(=O)c1ccc2c(n1)N(C(=O)Nc1ccccn1)[C@H]1CCN2C1 [Example 257, (4S)—N5-(pyridin-2-yl)-3,4-dihydro-1,4-methanopyrido[2,3-b][1,4]diazepine-5,7(2H)-dicarboxamide] | > 150% | B (EC1.5 1-25 μM) | –
CN(C)C(=O)c1ccnc(NC(=O)N2c3nc(C(=O)NCC(F)(F)F)ccc3N3CC[C@H]2C3)c1 [Example 259, (4S)—N5-(4-(dimethylcarbamoyl)pyridin-2-yl)-N7-(2,2,2-trifluoroethyl)-3,4-dihydro-1,4-methanopyrido[2,3-b][1,4]diazepine-5,7(2H)-dicarboxamide] | – | B (EC1.5 1-25 μM) | > 150%
O=C(NCC(F)(F)F)c1cc(O)c2c(n1)N(C(=O)Nc1ccccn1)[C@H]1CCN2C1 [Example 261, (4S)-9-hydroxy-N5-(pyridin-2-yl)-N7-(2,2,2-trifluoroethyl)-3,4-dihydro-1,4-methanopyrido[2,3-b][1,4]diazepine-5,7(2H)-dicarboxamide] | > 150% | A (EC1.5<1 μM) | –
C[C@@H](NC(=O)c1ccc2c(n1)N(C(=O)Nc1cc(C(=O)N[C@H]3CCOC3)ccn1)[C@H]1CCN2C1)C(F)(F)F [Example 264, (4S)—N5-(4-(((S)-tetrahydrofuran-3-yl)carbamoyl)pyridin-2-yl)-N7-((R)-1,1,1-trifluoropropan-2-yl)-3,4-dihydro-1,4-methanopyrido[2,3-b][1,4]diazepine-5,7(2H)-dicarboxamide] | < 150% | C (EC1.5>25 μM) | –
